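Values below derive from 48-hour exposures of cells grown in 96-well plates, with endpoints linearly interpolated between the two concentrations bracketing the appropriate inhibition level. TGI: concentration producing complete growth inhibition.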
What was measured:
Assay in all cases: NCI tumour cell line growth inhibition, 48 h
[1] = system: SR leukemia
[2] = system: SF-539 CNS
[3] = system: MALME-3M melanoma
[4] = system: LOX IMVI melanoma
[5] = system: M19-MEL melanoma
[6] = system: EKVX NSCLC
[7] = system: LXFL 529 NSCLC
[8] = system: SNB-75 CNS
[9] = system: SK-MEL-5 melanoma
[10] = system: CCRF-CEM leukemia
[11] = system: M14 melanoma
[12] = system: HOP-62 NSCLC
[13] = system: NCI-H522 lung
[14] = system: A498 renal
[15] = system: OVCAR-8 ovarian
[16] = system: RPMI-8226 leukemia
[17] = system: HCC-2998 colon
[18] = system: UO-31 renal
[19] = system: SF-295 CNS
[20] = system: KM20L2 colon
[21] = system: SNB-78 CNS
[22] = system: DMS 114 small cell lung
[23] = system: HCT-15 colon
[24] = system: UACC-257 melanoma
[25] = system: HOP-18 NSCLC
[26] = system: NCI-H460 lung
[27] = system: CAKI-1 renal
[28] = system: HOP-92 NSCLC
[29] = system: UACC-62 melanoma
[30] = system: SK-OV-3 ovarian
[31] = system: 786-0 renal
[32] = system: DLD-1 colon
[33] = system: SW-620 colon
[34] = system: KM12 colon
[35] = system: SNB-19 CNS
[36] = system: XF 498 CNS
[37] = system: DMS 273 small cell lung
[38] = system: K-562 leukemia
[39] = system: OVCAR-5 ovarian
[40] = system: U251 CNS
[41] = system: OVCAR-4 ovarian
[42] = system: NCI-H226 lung
[43] = system: SK-MEL-2 melanoma
[44] = system: NCI-H23 lung
[45] = system: ACHN renal
[46] = system: SN12C renal
[47] = system: SF-268 CNS
[48] = system: OVCAR-3 ovarian
[49] = system: IGROV1 ovarian
[50] = system: COLO 205 colon
[51] = system: TK-10 renal
[52] = system: A549 NSCLC
[53] = system: RXF-631 renal
[54] = system: MOLT-4 leukemia
[55] = system: SK-MEL-28 melanoma
[56] = system: HT29 colon
[57] = system: RXF 393 renal
[58] = system: HCT-116 colon
[59] = system: HL-60(TB) leukemia

Measured: TGI

NC(=Nc1ccc(S(=O)(=O)Nc2cnc3ccccc3n2)cc1)/N=C(/N)Nc1ccc(Br)cc1
not listed: [57] | [58] | [59]
> 100 µM: all other assays above

COC(=O)C1CC(C(=O)OC)c2nc3cc([N+](=O)[O-])ccc3nc21 (stereo not given)
> 64.7 µM: [13]
> 31.6 µM: [4]
> 86.8 µM: [59]
98.9 µM: [18]
> 59.1 µM: [17]
not listed: [1]
> 100 µM: all other assays above

COc1ccc(/C=N/Nc2nc(-c3cc4oc(=O)n(C)c4cc3Cl)cs2)cc1OC
91.8 µM: [23]
62.3 µM: [45]
88.5 µM: [36] | [46]
62.6 µM: [57]
51 µM: [49]
14.7 µM: [9]
36.2 µM: [52]
39 µM: [22]
31.9 µM: [41]
69.5 µM: [8]
77.1 µM: [28]
not listed: [13] | [14] | [42]
> 100 µM: all other assays above

From PubChem BioAssay (NCI)
